In PubChem BioAssay AID681 (The Scripps Research Institute Molecular Screening Center, 2007):

molecular target: Nuclear receptor ROR-alpha (Homo sapiens) (UniProt P35398); assay: activators of RORA nuclear receptor, dose response, cell-based, CHO-K1, Gal4-RORA LBD, luciferase luminescence (AID 681); conditions: CHO-K1 Gal4-RORA LBD luciferase reporter
Sequence (P35398 whole entry, looked up, the tested form may be a part): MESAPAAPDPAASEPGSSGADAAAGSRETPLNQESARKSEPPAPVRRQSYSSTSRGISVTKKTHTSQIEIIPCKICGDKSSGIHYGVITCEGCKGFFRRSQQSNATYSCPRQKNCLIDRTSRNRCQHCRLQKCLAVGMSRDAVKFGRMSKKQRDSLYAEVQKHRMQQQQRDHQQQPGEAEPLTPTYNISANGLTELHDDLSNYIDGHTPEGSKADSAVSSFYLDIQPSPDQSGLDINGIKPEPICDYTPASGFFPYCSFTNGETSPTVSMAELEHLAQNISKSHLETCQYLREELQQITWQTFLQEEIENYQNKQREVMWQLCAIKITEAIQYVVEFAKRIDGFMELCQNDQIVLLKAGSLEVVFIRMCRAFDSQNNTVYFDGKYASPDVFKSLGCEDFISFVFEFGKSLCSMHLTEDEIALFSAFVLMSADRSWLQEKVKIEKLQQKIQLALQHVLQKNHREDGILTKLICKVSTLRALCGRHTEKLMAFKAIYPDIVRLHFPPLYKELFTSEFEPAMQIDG

EC50, active:
C=CCOc1ccc(/C=C/C(C)=N\O)cc1 1.35 µM
O=C1COc2ccc(OCc3ccc(F)cc3)cc21 3.63 µM
CCOc1ccc(/C=C\C(C)=N\O)cc1 0.491 µM
